From ChEMBL document CHEMBL4334471, “Discovery of 1,8-disubstituted-[1,2,3]triazolo[4,5-c]quinoline derivatives as a new class of Hippo signaling pathway inhibitors” (Bioorg Med Chem Lett, 2019)

Columns and labels:
[1] = biological target: Activin receptor type-1-like (Homo sapiens) (UniProt P37023); test: Inhibition of recombinant human ALK1 (142 to end residues) assessed as residual activity at 10 uM using casein as substrate incubated for 40 mins in presence of [gamma-33ATP] by scintillation counting based radiometry assay relative to control
[2] = biological target: Activin receptor type-1B (Homo sapiens) (UniProt P36896); test: Inhibition of human ALK4 (150 to end residues) assessed as residual activity at 10 uM using casein as substrate incubated for 40 mins in presence of [gamma-33ATP] by scintillation counting based radiometry assay relative to control
Sequence of Activin receptor type-1B (Homo sapiens) (P36896 whole entry): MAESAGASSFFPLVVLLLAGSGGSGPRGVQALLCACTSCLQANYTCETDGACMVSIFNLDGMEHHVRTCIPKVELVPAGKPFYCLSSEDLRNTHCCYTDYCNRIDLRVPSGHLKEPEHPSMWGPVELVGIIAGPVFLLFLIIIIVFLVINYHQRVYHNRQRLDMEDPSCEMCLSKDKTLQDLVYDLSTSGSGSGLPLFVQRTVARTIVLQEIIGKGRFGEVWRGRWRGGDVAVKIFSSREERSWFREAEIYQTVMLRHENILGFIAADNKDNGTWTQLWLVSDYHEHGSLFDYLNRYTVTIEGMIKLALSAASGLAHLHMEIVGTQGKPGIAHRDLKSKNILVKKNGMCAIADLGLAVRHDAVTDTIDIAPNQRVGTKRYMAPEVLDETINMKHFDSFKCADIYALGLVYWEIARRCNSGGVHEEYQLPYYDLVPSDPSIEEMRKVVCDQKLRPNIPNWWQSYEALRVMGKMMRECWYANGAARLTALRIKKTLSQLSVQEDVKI

[3] = biological target: Death-associated protein kinase 2 (Homo sapiens) (UniProt Q9UIK4); test: Inhibition of recombinant full length human DAPK2 assessed as residual activity at 10 uM Calmodulin as substrate incubated 40 mins in presence of [gamma-33ATP] by scintillation counting based radiometry assay relative to control
Sequence of Death-associated protein kinase 2 (Homo sapiens) (Q9UIK4 whole entry, looked up, the tested form may be a part): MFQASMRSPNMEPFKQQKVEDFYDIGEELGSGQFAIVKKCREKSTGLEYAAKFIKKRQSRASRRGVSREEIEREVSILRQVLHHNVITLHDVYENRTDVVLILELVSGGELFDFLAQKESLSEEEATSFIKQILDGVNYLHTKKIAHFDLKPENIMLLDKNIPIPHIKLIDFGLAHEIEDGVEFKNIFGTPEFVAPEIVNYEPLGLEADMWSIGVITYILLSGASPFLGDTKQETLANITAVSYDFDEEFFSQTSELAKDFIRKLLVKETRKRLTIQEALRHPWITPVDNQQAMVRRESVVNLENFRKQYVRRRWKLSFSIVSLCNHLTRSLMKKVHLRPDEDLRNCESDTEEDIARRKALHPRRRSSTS

[4] = biological target: Focal adhesion kinase 1 (Homo sapiens) (UniProt Q05397); test: Inhibition of recombinant human FAK (411 to 686 residues) assessed as residual activity at 10 uM using EEEEYEEEEEEYYIIEEEEEEYEEEEEEYYEEEEEEKKKK as substrate at 40 mins in presence of [gamma-33ATP] by scintillation counting based radiometry assay relative to control
[5] = tested on: Hepatocyte growth factor receptor (Homo sapiens), P08581 [D1228H]; test: Inhibition of recombinant human MET A1209G/V1290L/D1246H mutant (974 to end residues) assessed as residual activity at 10 uM using KKKGQEEEYVFIE as substrate incubated for 40 mins in presence of [gamma-33ATP by scintillation counting based radiometry assay relative to control
[6] = tested on: Hepatocyte growth factor receptor (Homo sapiens), P08581 [D1228N]; test: Inhibition of recombinant human MET A1209G/V1290L/D1246N mutant (974 to end residues) assessed as residual activity at 10 uM using KKKGQEEEYVFIE as substrate incubated for 40 mins in presence of [gamma-33ATP by scintillation counting based radiometry assay relative to control
[7] = tested on: Hepatocyte growth factor receptor (Homo sapiens), P08581 [Y1230D]; test: Inhibition of recombinant human MET A1209G/V1290L/Y1248D mutant (974 to end residues) assessed as residual activity at 10 uM using KKKGQEEEYVFIE as substrate incubated for 40 mins in presence of [gamma-33ATP by scintillation counting based radiometry assay relative to control
[8] = biological target: Myosin light chain kinase, smooth muscle (Homo sapiens) (UniProt Q15746); test: Inhibition of recombinant human MLCK (1425 to 1771 residues) assessed as residual activity at 10 uM using […] incubated for 40 mins in presence of [gamma-33ATP by scintillation counting based radiometry assay relative to control
[9] = biological target: Serine/threonine-protein kinase Nek1 (Homo sapiens) (UniProt Q96PY6); test: Inhibition of recombinant human NEK1 (1 to 505 residues) assessed as residual activity at 10 uM using RLGRDKYKTLRQI as substrate measured after 40 mins in presence of [gamma33P]ATP by scintillation counting based radiometry assay relative to control
[10] = biological target: Serine/threonine-protein kinase NLK (Homo sapiens) (UniProt Q9UBE8); test: Inhibition of recombinant human NLK (121 to end residues) assessed as residual activity at 10 uM using protein as substrate measured after 40 mins in presence of [gamma33P]ATP by scintillation counting based radiometry assay relative to control
Sequence of Serine/threonine-protein kinase NLK (Homo sapiens) (Q9UBE8 whole entry): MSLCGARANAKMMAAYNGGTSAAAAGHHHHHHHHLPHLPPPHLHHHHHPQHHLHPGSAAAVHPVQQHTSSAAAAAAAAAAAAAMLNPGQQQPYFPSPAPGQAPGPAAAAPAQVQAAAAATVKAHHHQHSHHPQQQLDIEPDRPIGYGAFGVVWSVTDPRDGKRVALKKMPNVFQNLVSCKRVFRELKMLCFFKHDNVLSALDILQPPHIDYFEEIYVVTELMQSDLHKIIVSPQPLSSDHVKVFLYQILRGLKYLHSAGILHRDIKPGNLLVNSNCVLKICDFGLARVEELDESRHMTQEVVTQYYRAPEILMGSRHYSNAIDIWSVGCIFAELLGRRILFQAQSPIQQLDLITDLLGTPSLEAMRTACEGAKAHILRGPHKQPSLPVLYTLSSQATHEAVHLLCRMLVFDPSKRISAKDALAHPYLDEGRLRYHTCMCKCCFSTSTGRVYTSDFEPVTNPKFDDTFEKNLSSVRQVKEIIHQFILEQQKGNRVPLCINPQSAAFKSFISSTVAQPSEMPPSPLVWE

[11] = biological target: NUAK family SNF1-like kinase 2 (Homo sapiens) (UniProt Q9H093); test: Inhibition of recombinant human full length NUAK2 assessed as residual activity at 10 uM using KKKVSRSGLYRSPSMPENLNRPR as substrate measured after 40 mins in presence of [gamma33P]ATP by scintillation counting based radiometry assay relative to control
[12] = biological target: Serine/threonine-protein kinase D2 (Homo sapiens) (UniProt Q9BZL6); test: Inhibition of recombinant full-length human PKD2 assessed as residual activity at 10 uM using KKLNRTLSVA as substrate incubated for 40 mins in presence of [gamma33P]ATP by scintillation counting based radiometry assay relative to control
Sequence of Serine/threonine-protein kinase D2 (Homo sapiens) (Q9BZL6 whole entry): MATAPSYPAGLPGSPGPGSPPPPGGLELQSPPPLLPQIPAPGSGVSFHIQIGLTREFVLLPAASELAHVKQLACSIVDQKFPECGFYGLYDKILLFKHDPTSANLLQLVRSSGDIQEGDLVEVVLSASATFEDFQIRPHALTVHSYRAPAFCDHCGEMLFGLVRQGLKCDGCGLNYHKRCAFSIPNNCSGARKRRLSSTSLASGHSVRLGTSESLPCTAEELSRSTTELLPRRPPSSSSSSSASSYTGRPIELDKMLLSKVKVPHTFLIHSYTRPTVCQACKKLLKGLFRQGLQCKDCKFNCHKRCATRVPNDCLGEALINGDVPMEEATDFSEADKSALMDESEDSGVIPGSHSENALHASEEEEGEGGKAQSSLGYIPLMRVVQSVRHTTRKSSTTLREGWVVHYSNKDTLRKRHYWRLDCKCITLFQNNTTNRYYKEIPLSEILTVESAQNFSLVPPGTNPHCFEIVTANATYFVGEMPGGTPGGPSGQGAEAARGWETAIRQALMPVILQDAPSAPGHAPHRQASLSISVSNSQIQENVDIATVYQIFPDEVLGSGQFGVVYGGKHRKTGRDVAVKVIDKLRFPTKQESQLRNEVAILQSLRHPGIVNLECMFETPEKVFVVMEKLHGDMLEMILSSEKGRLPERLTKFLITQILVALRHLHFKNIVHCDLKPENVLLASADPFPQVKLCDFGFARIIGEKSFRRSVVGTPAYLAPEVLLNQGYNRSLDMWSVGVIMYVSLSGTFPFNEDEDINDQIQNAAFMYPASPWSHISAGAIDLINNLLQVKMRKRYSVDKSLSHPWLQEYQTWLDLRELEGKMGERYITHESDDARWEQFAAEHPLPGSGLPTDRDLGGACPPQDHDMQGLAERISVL

[13] = biological target: cGMP-dependent protein kinase 1 (Homo sapiens) (UniProt Q13976); test: Inhibition of recombinant full-length human PKG1beta assessed as residual activity at 10 uM using RRRLSFAEPG as substrate incubated for 40 mins in presence of [gamma33P]ATP by scintillation counting based radiometry assay relative to control
[14] = biological target: Proto-oncogene tyrosine-protein kinase receptor Ret (Homo sapiens) (UniProt P07949); test: Inhibition of recombinant human Ret (658 to end residues) assessed as residual activity at 10 uM using KKKSPGEYVNIEFG as substrate incubated for 40 mins in presence of [gamma33P]ATP by scintillation counting based radiometry assay relative to control
Sequence of Proto-oncogene tyrosine-protein kinase receptor Ret (Homo sapiens) (P07949 whole entry): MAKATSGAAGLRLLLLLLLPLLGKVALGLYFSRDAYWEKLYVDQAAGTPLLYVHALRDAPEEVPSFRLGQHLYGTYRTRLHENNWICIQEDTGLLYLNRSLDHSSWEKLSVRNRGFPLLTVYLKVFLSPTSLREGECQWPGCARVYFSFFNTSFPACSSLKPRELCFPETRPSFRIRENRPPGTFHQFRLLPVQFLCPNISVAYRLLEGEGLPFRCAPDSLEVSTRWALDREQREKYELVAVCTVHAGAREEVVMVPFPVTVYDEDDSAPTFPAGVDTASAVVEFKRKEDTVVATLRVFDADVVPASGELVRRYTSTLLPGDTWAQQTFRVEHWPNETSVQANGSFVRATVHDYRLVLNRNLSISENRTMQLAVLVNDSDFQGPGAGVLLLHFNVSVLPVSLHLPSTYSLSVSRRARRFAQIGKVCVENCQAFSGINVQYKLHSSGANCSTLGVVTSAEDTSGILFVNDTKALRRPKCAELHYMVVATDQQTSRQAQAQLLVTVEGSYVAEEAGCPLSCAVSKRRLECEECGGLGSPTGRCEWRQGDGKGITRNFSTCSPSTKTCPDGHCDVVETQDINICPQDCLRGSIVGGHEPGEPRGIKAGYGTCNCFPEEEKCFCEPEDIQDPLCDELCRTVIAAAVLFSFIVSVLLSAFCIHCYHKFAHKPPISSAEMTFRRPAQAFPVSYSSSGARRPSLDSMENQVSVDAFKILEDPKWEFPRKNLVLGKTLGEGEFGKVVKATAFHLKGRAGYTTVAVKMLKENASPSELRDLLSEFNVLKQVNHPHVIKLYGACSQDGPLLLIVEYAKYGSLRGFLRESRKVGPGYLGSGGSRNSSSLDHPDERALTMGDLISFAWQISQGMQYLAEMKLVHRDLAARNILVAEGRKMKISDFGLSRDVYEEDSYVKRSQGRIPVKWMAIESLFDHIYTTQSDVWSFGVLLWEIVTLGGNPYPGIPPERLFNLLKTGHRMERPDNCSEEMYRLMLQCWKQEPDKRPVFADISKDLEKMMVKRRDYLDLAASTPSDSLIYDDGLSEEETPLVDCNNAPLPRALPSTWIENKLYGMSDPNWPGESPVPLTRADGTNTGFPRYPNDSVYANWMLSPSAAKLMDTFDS

[15] = tested on: Proto-oncogene tyrosine-protein kinase Src (Homo sapiens), P12931 [T341M]; test: Inhibition of recombinant full length human SRC T341M mutant assessed as residual activity at 10 uM using GGEEEEYFELVKK as substrate incubated for 40 mins in presence of [gamma33P]ATP by scintillation counting based radiometry assay relative to control
[16] = biological target: SRSF protein kinase 1 (Homo sapiens) (UniProt Q96SB4); test: Inhibition of recombinant human SRPK1 (2 to end residues) assessed as residual activity at 10 uM using RSRSRSRSRSRSRSR as substrate incubated for 40 mins in presence of [gamma33P]ATP by scintillation counting based radiometry assay relative to control
Sequence of SRSF protein kinase 1 (Homo sapiens) (Q96SB4 whole entry, the tested form may be a part): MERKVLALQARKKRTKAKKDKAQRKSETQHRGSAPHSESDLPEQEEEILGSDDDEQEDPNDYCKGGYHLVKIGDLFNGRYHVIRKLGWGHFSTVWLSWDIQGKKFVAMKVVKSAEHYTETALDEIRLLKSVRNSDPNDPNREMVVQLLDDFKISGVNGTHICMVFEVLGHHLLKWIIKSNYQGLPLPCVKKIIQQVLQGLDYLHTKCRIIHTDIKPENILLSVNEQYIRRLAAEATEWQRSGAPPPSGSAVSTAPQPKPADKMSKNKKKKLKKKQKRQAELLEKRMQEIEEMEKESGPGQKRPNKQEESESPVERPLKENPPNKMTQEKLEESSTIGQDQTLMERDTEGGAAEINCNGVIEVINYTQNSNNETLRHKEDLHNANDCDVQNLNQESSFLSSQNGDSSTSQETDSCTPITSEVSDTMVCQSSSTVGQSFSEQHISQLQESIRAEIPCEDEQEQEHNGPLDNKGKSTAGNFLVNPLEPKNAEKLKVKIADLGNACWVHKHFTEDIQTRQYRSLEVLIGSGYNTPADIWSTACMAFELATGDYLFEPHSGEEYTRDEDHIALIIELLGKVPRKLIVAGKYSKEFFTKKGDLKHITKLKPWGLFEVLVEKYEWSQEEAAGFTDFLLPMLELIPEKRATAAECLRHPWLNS

[17] = biological target: Serine/threonine-protein kinase TAO1 (Homo sapiens) (UniProt Q7L7X3); test: Inhibition of recombinant human TAO1 (1 to 327 residues) assessed as residual activity at 10 uM using myelin basic protein as substrate incubated for 40 mins in presence of [gamma33P]ATP by scintillation counting based radiometry assay relative to control
Sequence of Serine/threonine-protein kinase TAO1 (Homo sapiens) (Q7L7X3 whole entry, the tested form may be a part): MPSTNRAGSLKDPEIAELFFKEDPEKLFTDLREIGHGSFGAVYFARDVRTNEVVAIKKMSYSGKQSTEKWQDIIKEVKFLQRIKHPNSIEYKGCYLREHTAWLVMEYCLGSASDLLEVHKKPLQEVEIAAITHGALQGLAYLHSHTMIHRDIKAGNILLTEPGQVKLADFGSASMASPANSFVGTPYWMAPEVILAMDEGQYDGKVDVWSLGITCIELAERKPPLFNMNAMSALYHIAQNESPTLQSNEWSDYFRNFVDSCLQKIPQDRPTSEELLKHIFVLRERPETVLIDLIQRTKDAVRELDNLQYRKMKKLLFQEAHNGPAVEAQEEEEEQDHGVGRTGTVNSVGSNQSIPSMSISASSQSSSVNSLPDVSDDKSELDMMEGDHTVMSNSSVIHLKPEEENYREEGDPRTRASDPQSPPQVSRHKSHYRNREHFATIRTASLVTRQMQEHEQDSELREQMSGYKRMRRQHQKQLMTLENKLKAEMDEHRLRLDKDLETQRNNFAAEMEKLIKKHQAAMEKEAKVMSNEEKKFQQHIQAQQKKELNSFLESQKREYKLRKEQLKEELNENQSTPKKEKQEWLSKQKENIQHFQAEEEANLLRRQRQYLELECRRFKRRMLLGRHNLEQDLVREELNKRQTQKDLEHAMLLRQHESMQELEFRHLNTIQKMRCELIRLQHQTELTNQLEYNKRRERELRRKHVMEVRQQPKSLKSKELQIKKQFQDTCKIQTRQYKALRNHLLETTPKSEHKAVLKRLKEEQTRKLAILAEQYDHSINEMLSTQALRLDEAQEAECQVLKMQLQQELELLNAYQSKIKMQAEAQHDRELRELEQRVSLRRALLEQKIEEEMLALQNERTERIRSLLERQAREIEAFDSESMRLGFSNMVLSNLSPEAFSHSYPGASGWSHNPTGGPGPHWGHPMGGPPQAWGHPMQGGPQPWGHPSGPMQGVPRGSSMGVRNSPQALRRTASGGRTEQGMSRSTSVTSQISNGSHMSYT

[18] = biological target: Serine/threonine-protein kinase tousled-like 1 (Homo sapiens) (UniProt Q9UKI8); test: Inhibition of recombinant full-length human TLK1 assessed as residual activity at 10 uM using casein as substrate incubated for 40 mins in presence of [gamma33P]ATP by scintillation counting based radiometry assay relative to control
[19] = biological target: BDNF/NT-3 growth factors receptor (Homo sapiens) (UniProt Q16620); test: Inhibition of recombinant human TRKB (455 to end residues) assessed as residual activity at 10 uM using poly(Glu, Tyr) 4:1 as substrate incubated for 40 mins in presence of [gamma33P]ATP by scintillation counting based radiometry assay relative to control
[20] = biological target: NT-3 growth factor receptor (Homo sapiens) (UniProt Q16288); test: Inhibition of recombinant human TRKC (510 to end residues) assessed as residual activity at 10 uM using GEEPLYWSFPAKK as substrate incubated for 40 mins in presence of [gamma33P]ATP by scintillation counting based radiometry assay relative to control

SMILES: C[C@@H](c1ccccc1)n1nnc2cnc3ccc(-c4cnc5[nH]ccc5c4)cc3c21
- Activity [1]: 78%
- Activity [2]: 100%
- Activity [3]: 89%
- Activity [4]: 82%
- Activity [5]: 72%
- Activity [6]: 55%
- Activity [7]: 70%
- Activity [8]: 61%
- Activity [9]: 23%
- Activity [10]: 43%
- Activity [11]: 105%
- Activity [12]: 65%
- Activity [13]: 66%
- Activity [14]: 57%
- Activity [15]: 74%
- Activity [16]: 62%
- Activity [17]: 18%
- Activity [18]: 99%
- Activity [19]: 2%
- Activity [20]: 2%
